Earlier results in patent US12421495B2, “Compositions and methods for selective phagocytosis of human cancer cells” (THE TRUSTEES OF THE UNIVERSITY OF PENNSYLVANIA, priority 2015, dated 2025).

Test system: tdTomato A549 tumors
Conditions: same tumor model; Nair et al. 2016

SMILES: CC(=O)O[C@H]1C(=O)[C@@]2(C)[C@H]([C@H](OC(=O)c3ccccc3)[C@]3(O)C[C@H](OC(=O)[C@H](O)[C@@H](NC(=O)c4ccccc4)c4ccccc4)C(C)=C1C3(C)C)[C@]1(OC(C)=O)CO[C@@H]1C[C@@H]2O [Paclitaxel]
- tumor shrinkage by day 10: −25%
